Patent US9249115B2, “N,N1 substituted piperazines having combined antiaggregant, anticoagulant and vasodilatory activity, and method for producing same” (Vertex Closed Joint Stock Company, priority 2011, dated 2016)

Experiments:
[1] = in vivo; cited from earlier work
[2] = tested on: experimental photothrombosis; test: Experimental photothrombosis model, arterial blood velocity; format: in vivo, Wistar male rats
Protocol: The studies were done on Wistar male rats with mass of 230±30 g (laboratory animals nursery “Rappolovo”, RAMS). The animals were kept with unlimited food (standard ration for laboratory rats K-120 by <<Inform-korm>>, Russia) and water allowance. […]
Thrombosis modeling: the drugs were introduced into left femoral vein, in 50 min afterwards 1 ml of Bengal rose A photosensitizer (Acros Organics, USA) solution was introduced with dose of 17 mg/kg [Boselli 2007, Petrischev 2009]. Then the incision of internal surface of animal right thigh about 2 cm in length was made. The section of the femoral vein about 5 mm in length was released from surrounding tissues and separated from neurovascular bundle. Beneath this section of the vein the black non-transparent plastic strip 3 mm in width was laid to screen off the vein and surrounding tissues from radiation. The irradiation was done using diode laser <<DPSS-laser>> (Diode Pumped Solid State Laser, South Korea) with 532 nm wavelength and 60 mW power. The area of irradiation was 1 mm^2, exposing time was 40 min. The blood flow in femoral artery was measured by high frequency Doppler ultrasonography method (<<Minimax-Doppler-K>> apparatus, frequency of sensor was 20 MHz). The blood velocity alteration due to irradiation was measured (Table 9).

[3] = tested on: mesentery venules; test: Vasodilator properties, microcirculatory vessel responsiveness to noradrenalin, venules; format: in vivo, Wistar male rats
Protocol: (§1) Vasodilator properties of N,N′-substituted piperazines were evaluated according to their influence on microcirculatory vessel responsiveness.
(§2) The studies were done on Wistar male rats with mass of 300±30 g (laboratory animals nursery “Rappolovo”, RAMS). The animals were kept with unlimited food (standard ration for laboratory rats K-120 by <<Inform-korm>>, Russia) and water allowance.
(§3) The solutions of N,N′-substituted piperazines and physiological (control) solution were introduced via bolus injection within 1 min into caudal vein of non-anaesthetized animals according to the dosage of 5.0 ml per 1 kg. Immediately after the introduction the animals were put in separate standard cages for observation.
(§4) In 30 min after the injection the animals were anaesthetized (thiopental sodium, 60 mg/kg intraperitoneally). The loop of small intestine adjoined to mesoappendix was retrieved through inferomedian incision. To study microcirculation in mesentery venules and arterioles in transmitted light the rat was placed on thermostated microscope objective table. The application of noradrenalin solution (Aguettant, 2 mg/ml, Laboratoire AGUETTANT, France) was done directly on the mesentery (Furness J. B., Marshall J. M., 1974; Yantareva L. I., 2004).
(§5) The study of microcirculatory vessels was done with LUMAM I1 microscope (LOMO, Russia). The recording of video data was done with the camera (Optics and Electronics ISTA Ltd) attached to a personal computer. The processing of data was done with Video-Test 4.0 software (ISTA Ltd., Russia). The diameter of the vessel wall (D, m) before and after the application of noradrenalin and the starting time of blood flow slowdown induced by noradrenalin were measured (the measurements were done for 1 min after the application).

[4] = tested on: mesentery arterioles; test: Vasodilator properties, microcirculatory vessel responsiveness to noradrenalin, arterioles; format: in vivo, Wistar male rats
Protocol: as §1, §2, §3, §4, §5

[5] = 0.01 mmol/kg, noradrenalin 10^−6 g/ml
[6] = 0.025 mmol/kg, noradrenalin 10^−7 g/ml

SMILES: Clc1ccccc1CN1CCc2sccc2C1 [ticlopidine]
- dermal reactions that lead to treatment cessation [1]: 4-15%
- gastrointestinal reactions that lead to treatment cessation [1]: up to 20%

SMILES: COc1ccc(CN2CCN(CC(CS(=O)(=O)[O-])OS(=O)(=O)[O-])CC2)c(OC)c1OC.[Na+].[Na+] (stereo not drawn) [Example 14, 2-sulfooxy-3-(4-((2,3,4-trimethoxyphenyl)-methyl)piperazine-1-yl)propane-1-sulfonic acid disodium salt monohydrate]
- V, cm/s (arterial blood velocity) ([2]; 0.01 mmol/kg, 0 min of irradiation): 6.9 ± 3.2 cm/s
- V, cm/s (arterial blood velocity) ([2]; 0.01 mmol/kg, 10 min of irradiation): 7.00 ± 2.0 cm/s
- V, cm/s (arterial blood velocity) ([2]; 0.01 mmol/kg, 20 min of irradiation): 6.8 ± 2.0 cm/s
- V, cm/s (arterial blood velocity) ([2]; 0.01 mmol/kg, 30 min of irradiation): 6.9 ± 1.3 cm/s
- V, cm/s (arterial blood velocity) ([2]; 0.01 mmol/kg, 40 min of irradiation): 6.6 ± 1.4 cm/s
- V, cm/s (arterial blood velocity) ([2]; 0.025 mmol/kg, 0 min of irradiation): 8.3 ± 1.8 cm/s
- V, cm/s (arterial blood velocity) ([2]; 0.025 mmol/kg, 10 min of irradiation): 8.1 ± 1.3 cm/s
- V, cm/s (arterial blood velocity) ([2]; 0.025 mmol/kg, 20 min of irradiation): 8.3 ± 2.0 cm/s
- V, cm/s (arterial blood velocity) ([2]; 0.025 mmol/kg, 30 min of irradiation): 8.0 ± 1.3 cm/s
- V, cm/s (arterial blood velocity) ([2]; 0.025 mmol/kg, 40 min of irradiation): 8.2 ± 1.2 cm/s
- % of vessel constriction [3, 5]: 33%
- Blood flow slowdown, Latent period of slowdown [3, 5]: 41 ± 6 s
- % of vessel constriction [3, 6]: 22%
- % of vessel constriction [4, 5]: 58%
- Blood flow slowdown, Latent period of slowdown [4, 5]: 43 ± 4 s
- % of vessel constriction [4, 6]: 28%
